Assay results as given in article PMC6503470, “Antibacterial Oligomeric Polyphenols from the Green Alga Cladophora socialis” (The Journal of Organic Chemistry, 2019).
≈ marks a conversion by molar mass, not a printed value. Read-outs that look alike come from different tables or passages of the source.

Columns and labels:
[1] = tested on: wild type Candida albicans (WTCA, ATCC 32354); assay: Antifungal MIC assay, wild type C. albicans; type: cell-based; details: ATCC32354, MIC90, values expressed as 95% confidence interval, read-out: Minimal inhibitory concentration, WTCA
[2] = Antibacterial MIC assay, Gram-negative panel; type: cell-based, Gram-negative bacteria (panel); details: one value for the whole panel of Gram-negative strains; read-out: Minimal inhibitory concentration, Gram–
[3] = tested on: P. falciparum strain Dd2L; assay: Parasite proliferation assay, asexual blood-stage P. falciparum, SYBR Green; type: cell-based; details: Plasmodium falciparum
Experimental: Antimalarial activity was assessed using a standard parasite proliferation assay with asexual blood-stage P. falciparum and SYBR Green detection.[22] Screening media (complete media supplemented with 0.05% Albumax II but without human serum) and fresh O^+ erythrocytes (TSRI Normal Blood Donation) were used for cultures of P. falciparum strain Dd2L (gift from Dr. David Fidock, Colombia University). A Labcyte ECHO acoustic liquid handler transferred compounds into assay plates. The plates were inoculated (Multi-Flo; BioTek, VT) with parasitized erythrocytes and fresh erythrocytes prepared in screening media, resulting in a final parasitemia of 0.3% and hematocrit of 2.5%. A chamber with a low oxygen gas mixture at 37 °C was used to culture the assay plates for 72 h with daily gas exchanges. SYBR Green lysis buffer was added to the wells after incubation using a Multi-Flo liquid dispenser, and plates were incubated at room temperature for an additional 24 h to achieve optimal development of the fluorescence signal which was read by an Envision Multimode Reader (PerkinElmer, MA). The positive controls used were atovaquone (EC50 = 0.0006 μM) and artemisinin (EC50 = 0.03 μM).

[4] = Cytotoxicity, human kidney cells; type: cell-based; details: human, HEK293T cells (human kidney cells); read-out: half maximal cytotoxicity concentration (CC50), HEK293T
[5] = tested on: human kidney cells (HEK293T); assay: Cytotoxicity, human kidney cells; type: cell-based; details: at the compound's P. falciparum EC50; cell line not restated, HEK293T assumed
[6] = tested on: methicillin-resistant Staphylococcus aureus (MRSA, ATCC 33591); assay: Antibacterial MIC assay, MRSA; type: cell-based; details: for MIC: Staphylococcus aureus, read-out: Minimal inhibitory concentration, MRSA
[7] = tested on: amphotericin B-resistant C. albicans (ARCA, ATCC 90873); assay: Antifungal MIC assay, amphotericin B-resistant C. albicans; type: cell-based; details: Candida albicans, ATCC90873; MIC90; values expressed as 95% confidence interval; read-out: Minimal inhibitory concentration, ARCA
[8] = tested on: vancomycin-resistant Enterococcus faecium (VREF, ATCC 700221); assay: Antibacterial MIC assay, VREF; type: cell-based; details: ATCC700221, MIC90, values expressed as 95% confidence interval, read-out: Minimal inhibitory concentration, VREF
[9] = tested on: Escherichia coli (EC, ATCC 25922); assay: Antibacterial MIC assay, E. coli; type: cell-based
[10] = tested on: MDR Escherichia coli (MDREC, ATCC BAA-1743); assay: microbe, parasite or virus in culture; details: ATCCBAA1743, read-out: MIC, MDREC
[11] = asexual blood stages, 72 h, 95% confidence interval, read-out: Half-maximal effective concentration, P. falciparum
[12] = MIC90, at least 90% inhibition of growth, values expressed as 95% confidence interval
[13] = ATCC25922, Gram– column, footnote e: tested only against E. coli, read-out: Minimal inhibitory concentration, Gram– (tested only against E. coli)
[14] = positive controls, read-out: EC50, P. falciparum

Row | MIC [1] | MIC [2] | EC50 [3, 11] | MIC [6, 12] | MIC [7] | MIC [8] | Structure (SMILES) | other results
1 | 16 ± 1 µg/mL (≈ 17.3 µM) |  |  |  |  |  | C[C@@H]1[C@H](O)[C@@H](C)/C=C/C=C/C=C/C=C/C=C/C=C/C=C/[C@H](O[C@@H]2O[C@H](C)[C@@H](O)[C@H](N)[C@@H]2O)C[C@@H]2O[C@](O)(C[C@@H](O)C[C@@H](O)[C@H](O)CC[C@@H](O)C[C@@H](O)CC(=O)O[C@H]1C)C[C@H](O)[C@H]2C(=O)O [amphotericin B, reference compound] | 
2 | > 50 µg/mL | > 50 µg/mL | 0.7 ± 0.1 µg/mL | > 50 µg/mL | > 50 µg/mL | > 50 µg/mL | O=c1oc2cc(O)c(O)cc2c2cc(O)c(O)cc12 [compound 4, 2,3,8,9-tetrahydroxybenzo[c]chromen-6-one] | CC50 [4]: 9.4 µg/mL (≈ 36.1 µM); toxicity at the P. falciparum EC50 values [5]: no toxicity
3 | > 50 µg/mL | > 50 µg/mL | > 2 µg/mL |  | > 50 µg/mL | > 50 µg/mL | Oc1ccc(Oc2ccc(Oc3ccc(Oc4ccc(Oc5ccc(Oc6ccc(Oc7ccc(Oc8ccc(Oc9ccc(-c%10ccc(O)c(O)c%10)cc9O)cc8O)cc7O)cc6O)cc5O)cc4O)cc3O)cc2O)cc1O [compound 7, α-hydro-ω-[3,4-dihydroxyphenyl]nona[oxy(2-hydroxyphen-4-yl)]] | 
4 | > 50 µg/mL | > 50 µg/mL | 1.9 ± 0.2 µg/mL | 13 to 49 µg/mL (≈ 28.2 to 106 µM) | > 50 µg/mL | > 50 µg/mL | O=c1oc2c(O)cc(Oc3ccc(-c4ccc(O)c(O)c4)cc3O)cc2c2c(O)c(O)ccc12 [compound 5, 4,9,10-trihydroxy-2-[(3,3′,4′-trihydroxy-(1,1′-biphenyl)-4-yl)oxy]benzo[c]chromen-6-one] | CC50 [4]: 4.5 µg/mL (≈ 9.77 µM); toxicity at the P. falciparum EC50 values [5]: no toxicity; Minimal inhibitory concentration, MRSA [6, 12]: 13 ± 2 µg/mL (≈ 28.2 µM)
5 | > 50 µg/mL |  |  |  | > 50 µg/mL | > 50 µg/mL | O=c1oc2c(O)cc(Oc3ccc(Oc4ccc(Oc5ccc(Oc6ccc(Oc7ccc(Oc8ccc(Oc9ccc(Oc%10ccc(Oc%11ccc(Oc%12ccc(Oc%13ccc(-c%14ccc(O)c(O)c%14)cc%13O)cc%12O)cc%11O)cc%10O)cc9O)cc8O)cc7O)cc6O)cc5O)cc4O)cc3O)cc2c2cc(O)c(O)cc12 [compound 12, α-[(4,8,9-trihydroxy-2-benzo[c]chromen-6-on-2-yl)oxy]-ω-[3,4-dihydroxyphenyl]undeca[oxy(2-hydroxyphen-4-yl)]] | MIC [9, 13]: > 50 µg/mL
6 |  |  |  |  |  |  | O=C1CN(/N=C/c2ccc([N+](=O)[O-])o2)C(=O)N1 [nitrofurantoin] | MIC [10]: 14 ± 1 µg/mL (≈ 58.8 µM)
7 | > 50 µg/mL | > 50 µg/mL |  | > 50 µg/mL | > 50 µg/mL | > 50 µg/mL | Oc1ccc(-c2ccc(O)c(O)c2)cc1O [compound 3, 3,4,3′,4′-tetrahydroxy-1,1′-biphenyl] | 
8 |  |  |  |  |  |  | CN[C@H](CC(C)C)C(=O)N[C@H]1C(=O)N[C@@H](CC(N)=O)C(=O)N[C@H]2C(=O)N[C@H]3C(=O)N[C@H](C(=O)N[C@H](C(=O)O)c4cc(O)cc(O)c4-c4cc3ccc4O)[C@H](O)c3ccc(c(Cl)c3)Oc3cc2cc(c3O[C@@H]2O[C@H](CO)[C@@H](O)[C@H](O)[C@H]2O[C@H]2C[C@](C)(N)[C@H](O)[C@H](C)O2)Oc2ccc(cc2Cl)[C@H]1O [vancomycin, reference compound] | MIC [6]: < 4 µg/mL
9 | > 50 µg/mL | > 50 µg/mL |  |  | > 50 µg/mL | > 50 µg/mL | O=c1oc2c(O)cc(Oc3ccc(Oc4ccc(Oc5ccc(Oc6ccc(Oc7ccc(Oc8ccc(Oc9ccc(Oc%10ccc(Oc%11ccc(Oc%12ccc(-c%13ccc(O)c(O)c%13)cc%12O)cc%11O)cc%10O)cc9O)cc8O)cc7O)cc6O)cc5O)cc4O)cc3O)cc2c2cc(O)c(O)cc12 [compound 11, α-[(4,8,9-trihydroxy-2-benzo[c]chromen-6-on-2-yl)oxy]-ω-[3,4-dihydroxyphenyl]deca[oxy(2-hydroxyphen-4-yl)]] | 
10 |  |  |  |  |  |  | O=C1C(O)=C([C@H]2CC[C@H](c3ccc(Cl)cc3)CC2)C(=O)c2ccccc21 [atovaquone, reference compound] | EC50 [3, 14]: 0.6 nM
11 | > 50 µg/mL | > 50 µg/mL | > 2 µg/mL | 13 to 49 µg/mL (≈ 11.7 to 44.2 µM) | > 50 µg/mL | > 50 µg/mL | O=c1oc2c(O)cc(Oc3ccc(Oc4ccc(Oc5ccc(Oc6ccc(Oc7ccc(Oc8ccc(Oc9ccc(-c%10ccc(O)c(O)c%10)cc9O)cc8O)cc7O)cc6O)cc5O)cc4O)cc3O)cc2c2cc(O)c(O)cc12 [compound 9, α-[(4,8,9-trihydroxy-2-benzo[c]chromen-6-on-2-yl)oxy]-ω-[3,4-dihydroxyphenyl]hepta[oxy(2-hydroxyphen-4-yl)]] | Minimal inhibitory concentration, MRSA [6, 12]: 14 ± 3 µg/mL (≈ 12.6 µM)
12 | 46 ± 13 µg/mL (≈ 47.2 µM) | > 50 µg/mL | > 2 µg/mL | 1.4 µg/mL (≈ 1.44 µM) | 46 ± 9 µg/mL (≈ 47.2 µM) | > 50 µg/mL | Oc1ccc(Oc2ccc(Oc3ccc(Oc4ccc(Oc5ccc(Oc6ccc(Oc7ccc(Oc8ccc(-c9ccc(O)c(O)c9)cc8O)cc7O)cc6O)cc5O)cc4O)cc3O)cc2O)cc1O [compound 6, α-hydro-ω-[3,4-dihydroxyphenyl]octa[oxy(2-hydroxyphen-4-yl)]] | Minimal inhibitory concentration, MRSA [6, 12]: 1.4 ± 0.3 µg/mL (≈ 1.44 µM)
13 | > 50 µg/mL |  | > 2 µg/mL | 13 to 49 µg/mL (≈ 10.7 to 40.3 µM) | > 50 µg/mL | > 50 µg/mL | O=c1oc2c(O)cc(Oc3ccc(Oc4ccc(Oc5ccc(Oc6ccc(Oc7ccc(Oc8ccc(Oc9ccc(Oc%10ccc(-c%11ccc(O)c(O)c%11)cc%10O)cc9O)cc8O)cc7O)cc6O)cc5O)cc4O)cc3O)cc2c2cc(O)c(O)cc12 [compound 8, α-[(4,8,9-trihydroxy-2-benzo[c]chromen-6-on-2-yl)oxy]-ω-[3,4-dihydroxyphenyl]octa[oxy(2-hydroxyphen-4-yl)]] | Minimal inhibitory concentration, MRSA [6, 12]: 25 ± 3 µg/mL (≈ 20.5 µM); MIC [9, 13]: > 50 µg/mL
14 |  |  |  |  |  | < 8 µg/mL | O=C(N[C@H](CO)[C@H](O)c1ccc([N+](=O)[O-])cc1)C(Cl)Cl [chloramphenicol, reference compound] | MIC ([9]; ATCC25922, positive control, read-out: MIC, EC): < 8 µg/mL
15 |  |  |  |  |  |  | C[C@@H]1CC[C@H]2[C@@H](C)C(=O)O[C@@H]3O[C@@]4(C)CC[C@@H]1[C@]32OO4 [artemisinin, reference compound] | EC50 [3, 14]: 30 nM
16 | > 50 µg/mL | > 50 µg/mL | > 2 µg/mL |  | > 50 µg/mL | > 50 µg/mL | O=c1oc2c(O)cc(Oc3ccc(Oc4ccc(Oc5ccc(Oc6ccc(Oc7ccc(Oc8ccc(Oc9ccc(Oc%10ccc(Oc%11ccc(-c%12ccc(O)c(O)c%12)cc%11O)cc%10O)cc9O)cc8O)cc7O)cc6O)cc5O)cc4O)cc3O)cc2c2cc(O)c(O)cc12 [compound 10, α-[(4,8,9-trihydroxy-2-benzo[c]chromen-6-on-2-yl)oxy]-ω-[3,4-dihydroxyphenyl]nona[oxy(2-hydroxyphen-4-yl)]] | 
